The text below walks through data of paper PMC12818745 (ACS Chemical Neuroscience, 2025).

Read-outs that look alike come from different tables or passages of the source.

Data set [1] addresses eeAChE (Electrophorus electricus AChE) (Electrophorus electricus, UniProt O42275). Briefly: Cholinesterase inhibition assay (modified Ellman's method), eeAChE. Format: biochemical. Particulars: for SI eeAChE: ratio eqBChE IC50/eeAChE IC50. The source says:
(§1) Compound series A and B were initially screened for their cholinesterase activity against eeAChE (Electrophorus electricus AChE) and eqBChE (equine serum butyrylcholinesterase), using an adaptation of the Ellman’s method. […]. […] Similarly, replacing the terminal triple bond in 7l with a nitrile group reduced its activity, while replacing the O-propargyl group with an N,N-dipropargyl group in 10 enhanced the inhibition of both enzymes, particularly BChE (Table ). The installation of an additional aryl ring in 7o further improved AChE inhibition, slightly increasing selectivity toward this enzyme. […]. […]. […]. The inhibitory activity of the synthesized compounds toward eeAChE and eqBChE was evaluated spectrophotometrically through a 96-well microplate modified Ellman’s method. The solutions of both enzymes were prepared as 0.025 U/mL in phosphate buffer at pH 7, from stock solutions of 5.05 U/mL and 7.50 U/mL, respectively. The stock solutions for the target compounds (0.1 M) were prepared in dimethyl sulfoxide (DMSO). […] The reaction mixture was prepared with 100 μL of the enzyme (eeAChE or eqBChE) and 50 μL of the test compound (or DMSO/water, not exceeding 0.2% of DMSO in the wells; i.e blank samples). After 5 min of the preincubation period at 37 °C, 50 μL of ATChI or BTChI and 50 μL of DTNB were added to each well, thus initiating the enzymatic reaction. The absorbance values were measured at 415 nm, for a total of 7.5 min, at every 2.5 min, using a microplate reader (Synergy multimode reader; BioTek). […]. All experiments were performed in triplicate.
On the technique in general: Ellman's reagent forms a yellow product with free thiols.

Data set [2] is described as follows: in vitro. The conditions noted are these: for Prediction (penetration into the CNS): class from PAMPA-BBB P e; for Papp at 2.5 h: PAMPA, pH 7.4. Here is the method:
To assess BBB permeability, a parallel artificial membrane permeability assay (PAMPA)-BBB was performed, which predicts passive BBB permeability using a brain lipid porcine membrane.
The prediction of the brain penetration was evaluated using a PAMPA-BBB. […] Next, 100 μL of these stock solutions were added to a solution of 1400 μL of EtOH and 3500 μL of PBS at pH 7.4, to reach 30% of EtOH concentration in the experiment. These solutions were filtered, using Filter PDVF membrane units (diameter 30 mm, pore size 0.45 μm, from Symta). After this, the acceptor 96-well microplate (Multiscreen, catalogue no. MAMCS9610, from Millipore) was filled with 180 μL of PBS/EtOH (70/30). […] After 5 min, 180 μL of each compound solution was added. 1–2 mg of each selected compound was dissolved in 1500 μL of EtOH and 3500 μL of PBS at pH 7.4, filtered, and then added to the donor 96-well plate to determine their ability to cross the brain barrier. After this, the donor plate was carefully put on the acceptor plate to form a “sandwich” and incubated for 2.5 h at 25 °C. During this period, the compounds diffused from the donor plate through the brain lipid membrane into the acceptor plate. Afterward, the donor plate was removed. A 96-well plate UV reader (Thermoscientific, Multiskan spectrum) was used to determine the concentration of compounds and commercial drugs in the acceptor and donor wells. Every sample was analyzed at three to five wavelengths, in three wells, and in two independent runs. […] Ten quality control compounds (previously mentioned) of known BBB permeability were included in each experiment to validate the analysis set.

The target of data set [3] is T1, Tau protein aggregation (Homo sapiens, UniProt P10636).
T1 construct: For the cloning and overexpression of full-length tau protein; expressed in transfected cells; host or cells: E. coli BL21 (DE3) carrying pTARA and pRKT42
Put plainly: Thioflavin S assay of tau protein aggregation in E. coli cells overexpressing tau. Format: cell-based, Escherichia coli. The conditions noted are these: read-out: Tau inhibition %. Here is the method: (§2) The antiaggregating profiles of both series A and B were evaluated using a fluorescence Thioflavin S (ThS) assay in cellulo, which monitors ThS fluorescence in the presence of β-sheet-rich structures, such as Aβ and tau protein aggregates. This method, based on recombinant Escherichia coli (E. coli) bacteria overexpressing insoluble aggregates, offers a simple and cost-effective approach to model aggregation processes in mammalian systems and has been validated for use in drug discovery studies. , Compounds were tested at a screening concentration of 50 μM for their ability to inhibit Aβ42 aggregation. The results, summarized in Table , reveal distinct antiaggregating profiles between series A and B, which are once again influenced by their structural differences.
This strategic extension aimed to validate the chromeno[3,4-b]-xanthone scaffold for related aggregation targets, considering the structural and pathological similarities between Aβ and tau aggregation processes. […]. […] Nevertheless, it is important to interpret the results cautiously, as the inability of certain compounds to cross bacterial membranes, may have underestimated their true inhibitory activity in the assay.
For the cloning and overexpression of full-length tau protein, E. coli BL21 (DE3) competent cells were transformed first with the pTARA vector containing the RNA polymerase gene of phage T7 (T7RP), controlled by the PBAD promoter. Subsequently, E. coli BL21(DE3) competent cells containing pTARA were transformed with the pRKT42 vector encoding four repeats of tau protein in two inserts. Similar to the procedure for Aβ42, overnight cultures were prepared by inoculating colonies of BL21 (DE3) cells bearing the plasmids in M9 medium supplemented with 0.5% glucose, 50 μg mL^–1 ampicillin, and 12.5 μg mL^–1 chloramphenicol at 37 °C. Upon induction, a 1:500 dilution of the overnight culture was added to fresh M9 minimal medium containing 0.5% glucose, 50 μg mL^–1 ampicillin, 12.5 μg mL^–1 chloramphenicol, and 25 μM ThS. The subsequent steps mirrored those for the Aβ assay, including the addition of the compound to be tested dissolved in DMSO and 10 μL of 25% arabinose or, alternatively, 10 μL of water for the noninduced controls, with a final compound concentration of […]. Negative controls for tau overexpression utilized free DMSO.
(§3) ThS (T1892) and all other chemical reagents were purchased from Sigma (St. Louis, MO). Stock solutions of ThS (250 μM) were prepared using doubly distilled water purified via a Milli-Q system (Millipore). For the fluorescence assay, ThS spectra were recorded utilizing an AmincoBowman series 2 luminescence spectrophotometer (Aminco-Bowman AB2, SLM Aminco, Rochester, NY) within the range of 460 to 600 nm at a temperature of 25 °C. The excitation wavelength employed was 445 nm, with slit widths set at 4 nm. The emission at 485 nm, corresponding to the ThS peak observed in the presence of amyloids, was recorded. To standardize ThS fluorescence relative to bacterial concentration in both in vitro and cell-based assays, the OD600 was determined using a Shimadzu UV-2401 PC UV–vis spectrophotometer. Fluorescence normalization was executed by setting the ThS fluorescence of bacterial cells expressing the peptide or protein in the absence of the drug as 100%, while that of bacterial cells not expressing the peptide or protein was established as 0%.

The target of data set [4] is T2, Aβ42 aggregation (Homo sapiens, UniProt P05067).
T2 construct: expressed in transfected cells; host or cells: E. coli BL21 (DE3), pET vector
Put plainly: Thioflavin S assay of Aβ42 aggregation in E. coli cells overexpressing Aβ42. It counts as cell-based, Escherichia coli. The conditions noted are these: read-out: Aβ42 inhibition %. Here is the method: as §2
42 Amino acid Aβ42 was cloned and overexpressed in E. coli BL21 (DE3) competent cells using the pET vector harboring the DNA sequence of Aβ42. Due to the addition of the initiation codon ATG preceding genes, the resulting overexpressed peptide contained an additional methionine residue at its N-terminus. For the preparation of overnight cultures, a colony of BL21 (DE3) cells carrying the plasmid for expression was inoculated in 10 mL of M9 minimal medium supplemented with 50 μg mL^–1 kanamycin at 37 °C. Subsequently, a 1:500 dilution of the overnight culture was added to fresh M9 minimal medium containing 50 μg mL^–1 kanamycin and 25 μM ThS. The bacterial culture was then incubated at 37 °C with agitation at 250 rpm. Upon reaching an OD600 of 0.6, 980 μL of the culture was transferred into 1.5 mL Eppendorf tubes, each containing 10 μL of the compound to be tested dissolved in DMSO and 10 μL of 100 mM isopropyl 1-thio-β-D-galactopyranoside (IPTG) or, alternatively, 10 μL of water for the noninduced controls. The final compound concentration was adjusted to […]. The samples were allowed to grow overnight at 37 °C with agitation at 1400 rpm using a Thermomixer (Eppendorf). Negative controls, representing maximum amyloid presence, utilized free DMSO.
as §3

For data set [5], the target named is T3, eqBChE (equine serum butyrylcholinesterase) (Equus caballus, UniProt P81908).
T3 construct: eqBChE (equine serum butyrylcholinesterase); from tissue; host or cells: equine serum
Put plainly: Cholinesterase inhibition assay (modified Ellman's method), eqBChE. Format: biochemical.
From the text: as §1

Setting [6] is: mean ± SEM, n = 3, n.a = nonactive, IC50 determined only if inhibition higher than 50% at 20 μM.

T2 sequence (P05067 672-713): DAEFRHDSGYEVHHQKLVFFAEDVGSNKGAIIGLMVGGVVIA
eeAChE (Electrophorus electricus AChE), sequence (O42275 24-633): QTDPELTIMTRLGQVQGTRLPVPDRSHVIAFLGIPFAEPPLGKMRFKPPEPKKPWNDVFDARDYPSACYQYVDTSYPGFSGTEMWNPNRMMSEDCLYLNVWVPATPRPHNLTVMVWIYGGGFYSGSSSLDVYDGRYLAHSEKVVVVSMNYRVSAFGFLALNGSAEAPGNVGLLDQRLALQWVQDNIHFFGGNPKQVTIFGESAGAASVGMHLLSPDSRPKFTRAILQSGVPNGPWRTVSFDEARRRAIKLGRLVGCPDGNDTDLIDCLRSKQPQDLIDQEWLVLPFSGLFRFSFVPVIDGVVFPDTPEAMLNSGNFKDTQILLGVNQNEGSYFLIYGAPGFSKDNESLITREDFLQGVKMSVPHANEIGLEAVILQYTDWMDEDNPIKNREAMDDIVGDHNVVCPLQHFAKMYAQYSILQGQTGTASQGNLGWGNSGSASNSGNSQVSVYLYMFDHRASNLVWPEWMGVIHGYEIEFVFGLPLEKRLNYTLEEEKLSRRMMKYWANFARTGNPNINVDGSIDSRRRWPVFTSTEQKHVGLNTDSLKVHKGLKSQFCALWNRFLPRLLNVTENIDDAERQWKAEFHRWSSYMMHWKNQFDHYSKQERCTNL
T1 sequence (P10636 other isoform, or with tags, fused parts or gaps): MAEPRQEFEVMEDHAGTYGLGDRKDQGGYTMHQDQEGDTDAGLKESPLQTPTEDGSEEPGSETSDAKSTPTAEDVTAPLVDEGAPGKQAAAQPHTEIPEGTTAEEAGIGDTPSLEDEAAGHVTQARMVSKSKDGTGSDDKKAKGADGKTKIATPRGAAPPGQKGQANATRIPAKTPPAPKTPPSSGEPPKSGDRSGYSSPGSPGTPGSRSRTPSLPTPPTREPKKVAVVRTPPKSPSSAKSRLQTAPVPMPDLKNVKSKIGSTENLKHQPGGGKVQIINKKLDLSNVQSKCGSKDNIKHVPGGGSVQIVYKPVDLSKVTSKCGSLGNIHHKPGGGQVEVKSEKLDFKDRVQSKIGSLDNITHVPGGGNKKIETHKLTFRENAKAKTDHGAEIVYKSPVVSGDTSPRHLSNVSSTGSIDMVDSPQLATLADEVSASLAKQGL
T3 sequence (P81908 whole entry): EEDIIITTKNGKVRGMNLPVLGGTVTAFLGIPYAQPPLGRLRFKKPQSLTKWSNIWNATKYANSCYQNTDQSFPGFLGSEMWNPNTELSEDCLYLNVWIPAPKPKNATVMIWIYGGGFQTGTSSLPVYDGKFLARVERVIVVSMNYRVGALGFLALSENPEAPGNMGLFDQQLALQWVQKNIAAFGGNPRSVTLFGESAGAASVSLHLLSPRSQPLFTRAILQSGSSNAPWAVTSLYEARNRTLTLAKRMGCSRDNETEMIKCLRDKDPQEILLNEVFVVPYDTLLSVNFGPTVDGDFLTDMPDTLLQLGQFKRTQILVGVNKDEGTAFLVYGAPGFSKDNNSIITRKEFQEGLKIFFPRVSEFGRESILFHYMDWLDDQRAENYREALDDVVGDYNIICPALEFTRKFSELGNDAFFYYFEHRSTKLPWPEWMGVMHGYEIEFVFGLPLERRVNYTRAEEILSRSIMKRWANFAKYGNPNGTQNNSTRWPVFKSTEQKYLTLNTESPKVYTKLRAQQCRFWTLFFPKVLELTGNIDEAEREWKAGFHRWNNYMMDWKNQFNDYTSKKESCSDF

On to `O=c1c2ccccc2oc2cc3c(cc12)COc1c(Br)cc(Cl)cc1-3` [Compound 11k, 4-Bromo-2-chloro-6H,8H-chromeno[3,4-b]xanthen-8-one], for which the IC50 in data set [1] was 4.2 ± 0.9 µM; in data set [5], 6.2 ± 1 µM. The “SI eeAChE” value in data set [1] is on record as 1.48. Further, the “Prediction (penetration into the CNS)” value in data set [2] was “CNS± (Uncertain BBB permeation (CNS±) 3.93 > P e > 1.82)”. In data set [2] (pig), this compound registered a Papp at 2.5 h of 2.3 ± 1.11 ×10⁻⁶ cm/s. For the same compound, the inhibition at 50 µM was determined as 52 ± 7.2% in data set [3] and 46 ± 3.7% in data set [4].
Consider `O=c1c2ccccc2oc2cc3c(cc12)COc1ccc(F)cc1-3` [Compound 11i, 2-Fluoro-6H,8H-chromeno[3,4-b]xanthen-8-one], for which the inhibition at 50 µM in data set [3] stood at 52 ± 6.3%; in data set [4], 47 ± 8.4%.
As to `COc1ccc2c(=O)c3cc4c(cc3oc2c1)-c1cc(F)ccc1OC4` [Compound 11q, 2-Fluoro-11-methoxy-6H,8H-chromeno[3,4-b]xanthen-8-one], the IC50 in data set [1] amounted to 4.3 ± 1.5 µM. The “Prediction (penetration into the CNS)” value in data set [2] is given as “CNS+ (High BBB permeation predicted (CNS+) P e > 3.93)”. For the same compound, the Papp at 2.5 h in data set [2] (pig) is 6.04 ± 1.99 ×10⁻⁶ cm/s. The figures for the inhibition at 50 µM in data set [3] and in data set [4] were 55 ± 5.9% and 50 ± 6.7%, respectively.
As for `COc1ccc2c(=O)c3cc4c(cc3oc2c1)-c1c(ccc2ccccc12)OC4` [Compound 12b], the inhibition at 50 µM was determined as 57 ± 7% in data set [3] and 54 ± 6.2% in data set [4].
Regarding `COc1ccc2c(c1)-c1cc3oc4cccc(OC)c4c(=O)c3cc1CO2` [Compound 11m, 2,9-Dimethoxy-6H,8H-chromeno[3,4-b]xanthen-8-one], in data set [4], the inhibition at 50 µM amounted to 30 ± 6.6%. For the same compound, the IC50 in data set [5] is 7.3 ± 0.4 µM.
Consider `O=c1c2ccccc2oc2cc3c(cc12)COc1ccc(OC(F)(F)F)cc1-3` [Compound 11h, 2-(Trifluoromethoxy)-6H,8H-chromeno[3,4-b]xanthen-8-one], for which the IC50 in data set [1] was determined as 4 ± 1.2 µM; in data set [5] it was 6.2 ± 0.7 µM. Also, the “SI eeAChE” value in data set [1] turned out to be 1.55. Further, in data set [4], the inhibition at 50 µM stood at 41 ± 6.4%.
Regarding `COc1ccc2c(=O)c3cc4c(cc3oc2c1OC)-c1ccccc1OC4` [Compound 11d, 11,12-Dimethoxy-6H,8H-chromeno[3,4-b]xanthen-8-one], the inhibition at 50 µM in data set [4] came to 40 ± 6.4%. Also, the IC50 in data set [5] came out at 7.1 ± 0.1 µM.
For `CCn1cc(C(=O)O)c(=O)c2cc(F)c(N3CCNCC3)nc21` [Enoxacin, reference compound], in data set [2] (pig), the Papp at 2.5 h amounted to 0.15 ± 0.15 ×10⁻⁶ cm/s.
As to `COc1ccc2c(=O)c3cc4c(cc3oc2c1)-c1ccccc1OC4` [Compound 11b, 11-Methoxy-6H,8H-chromeno[3,4-b]xanthen-8-one], the IC50 in data set [1] (setting [6]) is 3.9 ± 0.9 µM. For the same compound, the inhibition at 50 µM in data set [4] was 22 ± 2.7%.
The corresponding values for `C#CCOc1ccccc1/C=C/c1cc(=O)c2ccccc2o1` [Compound 7a, (E)-2-[2-(Prop-2-yn-1-yloxy)styryl]-4H-chromen-4-one] are 9.5 ± 0.3 µM and 38 ± 6.2%.
For the compound `COc1ccc2c(c1)-c1cc3oc4cc(OC)ccc4c(=O)c3cc1CO2` [Compound 11l, 2,11-Dimethoxy-6H,8H-chromeno[3,4-b]xanthen-8-one], in data set [1], the IC50 came to 4.8 ± 0.5 µM and the “SI eeAChE” value was 1.88. Besides, the inhibition at 50 µM in data set [4] was found to be 40 ± 5.1%. Besides, the IC50 in data set [5] was found to be 9 ± 0.5 µM.
Turning to `CNCCCN1c2ccccc2CCc2ccccc21` [Desipramine, reference compound], the Papp at 2.5 h in data set [2] (pig) turned out to be 15.6 ± 1.78 ×10⁻⁶ cm/s.
With `COc1cc(OC)c2c(=O)c3cc4c(cc3oc2c1)-c1ccccc1OC4` [Compound 11e, 9,11-Dimethoxy-6H,8H-chromeno[3,4-b]xanthen-8-one], the inhibition at 50 µM in data set [4] stood at 36 ± 4.4%. The IC50 in data set [5] was 9.4 ± 0.2 µM.
Take `CN1C(C(=O)Nc2ccccn2)=C(O)c2ccccc2S1(=O)=O` [Piroxicam, reference compound]: in data set [2] (pig), the Papp at 2.5 h is 0.19 ± 0.02 ×10⁻⁶ cm/s.
`CN(C)CCCN1c2ccccc2Sc2ccccc21` [Promazine, reference compound]: the Papp at 2.5 h in data set [2] came out at 15.4 ± 0.91 ×10⁻⁶ cm/s.
As to `COc1ccc2c(c1)-c1cc3oc4ccccc4c(=O)c3cc1CO2` [Compound 11f, 2-Methoxy-6H,8H-chromeno[3,4-b]xanthen-8-one], in data set [1], the 50% inhibitory concentration (IC50) stood at 6.9 ± 1.5 µM and the “SI eeAChE” value amounted to 0.88. For the same compound, in data set [4], the inhibition at 50 µM was found to be 36 ± 7.8%. In addition, the IC50 in data set [5] turned out to be 6.1 ± 0.5 µM.

Broadly, the IC50 is the midpoint of a concentration-inhibition curve. Broadly, the Papp is the rate of passage across a membrane or cell layer, normalised by area and donor concentration. Lower therefore signals slow passage. By inhibition is commonly meant how much of the control response was suppressed.
